Measured values taken from patent US10703756B2, “Pyrrolo[2,3-D]pyrimidinyl, pyrrolo[2,3-B]pyrazinyl, pyrrolo[2,3-B]pyridinyl acrylamides and epoxides thereof” (Pfizer Inc., priority 2015, dated 2020).

Assays:
[1] = system: IL-15 induced P-STAT5 in human PBMC; test: PBMC IL-15 Induced P-STAT5; type: cell-based; conditions: human PBMC, IL-15 final 41 ng/mL; read-out: PBMC IL15_pSTAT5_IC50
In short: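 Thawed human PBMC, rested in human plasma, were preincubated 15 min at 37 °C with compound (0.2% DMSO), then stimulated 15 min with IL-15 at 41 ng/mL final. After paraformaldehyde fixation and methanol permeabilisation, Alexa Fluor 647 anti-STAT5 staining overnight at 4 °C was analysed by flow cytometry on total lymphocytes.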

JAK3 enzyme = target: T1, JAK3 enzyme (Homo sapiens, UniProt P52333); test: JAK Caliper Enzyme Assay at 4 μM ATP; type: biochemical
T1 sequence (P52333 1-1124): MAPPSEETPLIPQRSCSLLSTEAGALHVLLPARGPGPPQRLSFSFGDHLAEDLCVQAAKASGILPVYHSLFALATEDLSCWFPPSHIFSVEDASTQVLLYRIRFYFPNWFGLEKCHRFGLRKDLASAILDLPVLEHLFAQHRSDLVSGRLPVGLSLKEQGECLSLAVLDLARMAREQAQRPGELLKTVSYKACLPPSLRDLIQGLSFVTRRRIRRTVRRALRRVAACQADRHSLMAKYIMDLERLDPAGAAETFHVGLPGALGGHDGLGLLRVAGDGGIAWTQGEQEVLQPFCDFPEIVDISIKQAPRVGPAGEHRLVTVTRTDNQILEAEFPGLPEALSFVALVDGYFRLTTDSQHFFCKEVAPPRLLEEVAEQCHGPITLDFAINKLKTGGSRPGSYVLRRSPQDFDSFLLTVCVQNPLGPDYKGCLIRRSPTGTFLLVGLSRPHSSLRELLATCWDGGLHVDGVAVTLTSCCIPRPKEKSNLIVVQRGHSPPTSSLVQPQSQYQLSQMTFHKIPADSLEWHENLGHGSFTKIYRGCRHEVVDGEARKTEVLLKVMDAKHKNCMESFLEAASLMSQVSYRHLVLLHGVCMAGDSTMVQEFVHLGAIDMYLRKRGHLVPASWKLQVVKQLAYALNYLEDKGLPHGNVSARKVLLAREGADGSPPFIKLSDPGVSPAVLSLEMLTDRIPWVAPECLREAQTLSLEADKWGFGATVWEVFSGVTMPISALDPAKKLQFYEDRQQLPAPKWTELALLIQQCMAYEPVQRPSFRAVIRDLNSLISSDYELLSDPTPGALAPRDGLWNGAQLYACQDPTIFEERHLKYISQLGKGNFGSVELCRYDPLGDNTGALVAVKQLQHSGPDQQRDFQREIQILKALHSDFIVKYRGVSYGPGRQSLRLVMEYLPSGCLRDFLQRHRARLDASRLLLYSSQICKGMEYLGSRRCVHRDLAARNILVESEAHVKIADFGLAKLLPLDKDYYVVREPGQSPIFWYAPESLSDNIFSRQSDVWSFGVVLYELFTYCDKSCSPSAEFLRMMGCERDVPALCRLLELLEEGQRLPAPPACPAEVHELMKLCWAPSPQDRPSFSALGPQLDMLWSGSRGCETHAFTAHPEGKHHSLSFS
In short: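 First, compound stocks in DMSO were serially diluted half-log over 11 points, starting at 600 μM. Next, reactions ran with batch-optimized enzyme and timing targeting 20%-30% phosphorylation. Finally, wells were sampled and product separated from substrate peptide electrophoretically.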

IC50 (JAK3 enzyme)	SMILES	IC50 [1]
0.689 nM	C=CC(=O)N1CCC(Nc2cnc3[nH]cc(C(=O)NCc4ccc(F)c(C#N)c4)c3n2)CC1 [Example 189, 2-[(1-acryloylpiperidin-4-yl)amino]-N-(3-cyano-4-fluorobenzyl)-5H-pyrrolo[2,3-b]pyrazine-7-carboxamide]	203 nM
0.233 nM	C=CC(=O)N1CCC(Oc2cnc3[nH]cc(C(=O)N[C@H]4CC[C@@H](F)C4)c3n2)CC1 [Example 225, 2-[(1-acryloylpiperidin-4-yl)oxy]-N-[(1S,3R)-3-fluorocyclopentyl]-5H-pyrrolo[2,3-b]pyrazine-7-carboxamide]	170 nM
0.769 nM	C=CC(=O)N1C[C@H](CN2CC[C@H](C#N)C2)C[C@H](Nc2ncnc3[nH]ccc23)C1 [Example 108, (S)-1-(((3S,5S)-5-((7H-pyrrolo[2,3-d]pyrimidin-4-yl)amino)-1-acryloylpiperidin-3-yl)methyl)pyrrolidine-3-carbonitrile]	3260 nM
